Patent EP1561465A2, “Methods of use of fluoroquinolone compounds against bacteria” (LG Life Sciences, Ltd., priority 1999, dated 2001)
Converted amounts (≈) assume the structure as drawn. Where two headings read alike, the source gives them in different places.

Experiments:
Format in all cases: cell-based
Yersinia enterocolitica [1] = test: MIC by agar dilution (NCCLS M7-A4), 288 enteropathogenic isolates, eight quinolones; conditions: Yersinia enterocolitica (n = 22)
Moraxella catarrhalis = test: MIC by agar dilution (NCCLS), 411 isolates Buenos Aires 1998-99; conditions: Moraxella catarrhalis (n = 59)
Staphylococcus aureus [2] = test: MIC by NCCLS reference broth microdilution, 450 respiratory tract pathogens
Staphylococcus aureus [3] = test: MIC by NCCLS broth microdilution, 1100 Japanese clinical isolates 1997-1998; conditions: for MIC50 / MIC90 / MIC: Staphylococcus aureus; for MIC: Staphylococcus aureus quinolone resistant
Streptococcus pneumoniae = test: as above; conditions: for MIC: Streptococcus pneumoniae quinolone resistant
Proteus vulgaris = test: as above
Providencia rettgeri = test: as above; conditions: Providencia rettgeri (n=12)
Enterococcus faecium = test: MIC by agar macrodilution (NCCLS), 373 Gram positive isolates, Athens 1998
Yersinia enterocolitica [4] = test: MIC by agar dilution (NCCLS M7-A4), 288 enteropathogenic isolates, gemifloxacin and 15 other antimicrobials; conditions: Yersinia enterocolitica N= 22
[5] = β-lactamase positive and erythromycin resistant (n = 10)
[6] = Staphylococcus aureus oxacillin resistant (n=57)
[7] = Staphylococcus aureus oxacillin susceptible (n=41)
[8] = Streptococcus pneumoniae erythromycin resistant (n=34)
[9] = Streptococcus pneumoniae erythromycin susceptible (n=11)

For `N[C@@H]1[C@H]2CN(c3nc4c(cc3F)c(=O)c(C(=O)O)cn4-c3ccc(F)cc3F)C[C@@H]12` [Trovafloxacin, trovafloxacin], the “% Susceptible” value (Yersinia enterocolitica [1]) was 100%, the MIC50 (Yersinia enterocolitica [1]) was 0.06 µg/mL (≈ 0.144 µM) and the MIC90 (Yersinia enterocolitica [1]) was 0.06 µg/mL (≈ 0.144 µM). The “MIC Range” value (Yersinia enterocolitica [1]) was at most 0.015 to 0.25 µg/mL, the “MIC Range” value (Moraxella catarrhalis) was at most 0.004 to 0.03 µg/mL and the MIC90 (Moraxella catarrhalis; read-out: MIC90) was 0.016 µg/mL (≈ 0.0384 µM). For the same compound, the MIC (Staphylococcus aureus [2]; Staphylococcus aureus (n = 50)) was 0.00375 to 0.5 µg/mL (≈ 0.00901 to 1.2 µM), the MIC50 (Staphylococcus aureus [2]; Staphylococcus aureus (n = 50)) was 0.12 µg/mL (≈ 0.288 µM) and the MIC90 (Staphylococcus aureus [2]; Staphylococcus aureus (n = 50)) was 0.25 µg/mL (≈ 0.6 µM). The MIC (Staphylococcus aureus [2]; β-lactamase negative (n = 20)) was 0.00375 to 0.25 µg/mL (≈ 0.00901 to 0.6 µM), the MIC50 (Staphylococcus aureus [2]; β-lactamase negative (n = 20)) was 0.12 µg/mL (≈ 0.288 µM) and the MIC90 (Staphylococcus aureus [2]; β-lactamase negative (n = 20)) was 0.25 µg/mL (≈ 0.6 µM). For the same compound, the MIC (Staphylococcus aureus [2]; β-lactamase positive (n = 20)) was 0.06 to 0.5 µg/mL (≈ 0.144 to 1.2 µM), the MIC50 (Staphylococcus aureus [2]; β-lactamase positive (n = 20)) was 0.12 µg/mL (≈ 0.288 µM) and the MIC90 (Staphylococcus aureus [2]; β-lactamase positive (n = 20)) was 0.25 µg/mL (≈ 0.6 µM). The MIC (Staphylococcus aureus [2]; [5]) was 0.00375 to 0.25 µg/mL (≈ 0.00901 to 0.6 µM), the MIC50 (Staphylococcus aureus [2]; [5]) was 0.12 µg/mL (≈ 0.288 µM) and the MIC90 (Staphylococcus aureus [2]; [5]) was 0.25 µg/mL (≈ 0.6 µM). The “MIC Range” value (Staphylococcus aureus [3]; [6]) was 0.016 to 32 µg/mL, the “MIC Range” value (Staphylococcus aureus [3]; [7]) was at most 0.008 to 0.5 µg/mL and the MIC50 (Staphylococcus aureus [3]; [6]) was 1 µg/mL (≈ 2.4 µM). The MIC90 (Staphylococcus aureus [3]; [6]) was 8 µg/mL (≈ 19.2 µM), the MIC50 (Staphylococcus aureus [3]; [7]) was 0.032 µg/mL (≈ 0.0769 µM) and the MIC90 (Staphylococcus aureus [3]; [7]) was 0.063 µg/mL (≈ 0.151 µM). For the same compound, the MIC (Staphylococcus aureus [3]; strain TMS1* (spontaneous mutant resistant to ciprofloxacin)) was 0.125 µg/mL (≈ 0.3 µM), the MIC (Staphylococcus aureus [3]; strain TMS3, read-out: MIC) was 128 µg/mL (≈ 307 µM) and the MIC (Staphylococcus aureus [3]; strain TMS4, read-out: MIC) was 0.5 µg/mL (≈ 1.2 µM). The MIC (Staphylococcus aureus [3]; strain TMS5, read-out: MIC) was 1 µg/mL (≈ 2.4 µM), the MIC (Staphylococcus aureus [3]; strain TMS6, read-out: MIC) was 0.5 µg/mL (≈ 1.2 µM) and the MIC50 (Streptococcus pneumoniae; Streptococcus pneumoniae) was 0.125 µg/mL (≈ 0.3 µM). The MIC90 (Streptococcus pneumoniae; Streptococcus pneumoniae) was 0.125 µg/mL (≈ 0.3 µM), the “MIC Range” value (Streptococcus pneumoniae; Streptococcus pneumoniae amoxicillin resistant (n=40)) was 0.063 to 1 µg/mL and the “MIC Range” value (Streptococcus pneumoniae; Streptococcus pneumoniae amoxicillin susceptible (n=35)) was 0.063 to 1 µg/mL. The MIC90 (Streptococcus pneumoniae; [8]) was 0.125 µg/mL (≈ 0.3 µM), the “MIC Range” value (Streptococcus pneumoniae; [8]) was 0.063 to 1 µg/mL and the MIC90 (Streptococcus pneumoniae; [9]) was 0.125 µg/mL (≈ 0.3 µM). The “MIC Range” value (Streptococcus pneumoniae; [9]) was 0.063 to 0.125 µg/mL, the MIC50 (Streptococcus pneumoniae; Streptococcus pneumoniae, Streptococcus pneumoniae amoxicillin resistant (n=40), read-out: MIC50) was 0.063 µg/mL (≈ 0.151 µM) and the MIC50 (Streptococcus pneumoniae; Streptococcus pneumoniae, Streptococcus pneumoniae amoxicillin susceptible (n=35), read-out: MIC50) was 0.063 µg/mL (≈ 0.151 µM). For the same compound, the MIC90 (Streptococcus pneumoniae; Streptococcus pneumoniae, Streptococcus pneumoniae amoxicillin susceptible (n=35), read-out: MIC90) was 0.25 µg/mL (≈ 0.6 µM), the MIC50 (Streptococcus pneumoniae; Streptococcus pneumoniae, Streptococcus pneumoniae erythromycin resistant (n=34), read-out: MIC50) was 0.063 µg/mL (≈ 0.151 µM) and the MIC (Streptococcus pneumoniae; Streptococcus pneumoniae, strain TMS1) was 0.25 µg/mL (≈ 0.6 µM). The MIC (Streptococcus pneumoniae; Streptococcus pneumoniae, strain TMS2) was 1 µg/mL (≈ 2.4 µM), the MIC50 (Proteus vulgaris; Proteus vulgaris) was 0.125 µg/mL (≈ 0.3 µM) and the “MIC Range” value (Proteus vulgaris; Proteus vulgaris (n=25)) was 0.063 to 2 µg/mL. For the same compound, the MIC90 (Proteus vulgaris; Proteus vulgaris (n=25), read-out: MIC90) was 1 µg/mL (≈ 2.4 µM), the MIC90 (Providencia rettgeri) was 8 µg/mL (≈ 19.2 µM) and the “MIC Range” value (Providencia rettgeri) was 0.125 to 8 µg/mL. For the same compound, the MIC50 (Providencia rettgeri; read-out: MIC50) was 0.25 µg/mL (≈ 0.6 µM), the “MIC distribution (µg/ml) 0.03” value (Enterococcus faecium) was 0 and the “MIC distribution (µg/ml) 0.06” value (Enterococcus faecium) was 0. For the same compound, the “MIC distribution (µg/ml) 0.125” value (Enterococcus faecium) was 0, the “MIC distribution (µg/ml) 0.25” value (Enterococcus faecium) was 1 and the “MIC distribution (µg/ml) 0.5” value (Enterococcus faecium) was 6. The “MIC distribution (µg/ml) 1” value (Enterococcus faecium) was 2, the “MIC distribution (µg/ml) 2” value (Enterococcus faecium) was 0 and the “MIC distribution (µg/ml) 4” value (Enterococcus faecium) was 0. For the same compound, the “MIC distribution (µg/ml) 8” value (Enterococcus faecium) was 1, the “MIC distribution (µg/ml) 16” value (Enterococcus faecium) was 0 and the “MIC distribution (µg/ml) ≤0.015” value (Enterococcus faecium) was 0. The “MIC distribution (µg/ml) ≥32” value (Enterococcus faecium) was 4, the MIC50 (Enterococcus faecium; Enterococcus faecium, n = 14 isolates, read-out: MIC50) was 0.5 µg/mL (≈ 1.2 µM) and the MIC90 (Enterococcus faecium; Enterococcus faecium, n = 14 isolates, read-out: MIC90) was at least 32 µg/mL. For the same compound, the MIC (Yersinia enterocolitica [4]; 24 h, read-out: MIC (mg/L) Range) was 0.015 to 0.25 mg/L (≈ 0.036 to 0.6 µM), the MIC (Yersinia enterocolitica [4]; read-out: MIC (mg/L) 50%) was 0.06 mg/L (≈ 0.144 µM) and the MIC (Yersinia enterocolitica [4]; read-out: MIC (mg/L) 90%) was 0.06 mg/L (≈ 0.144 µM).
